From patent US20170137481A1, “Use of Cell-Permeable Peptide Inhibitors of the JNK Signal Transduction Pathway for the Treatment of Various Diseases” (Xigen Inflammation Ltd., priority 2014, published 2017)
Each block holds one compound with its values, some of them ahead of it. Non-standard residues stand in square brackets, D forms with d. No end group written: not given here.

Tests used:
[1] = tested on: TC-3 cell cultures; assay: Cellular import of fluorescein labeled TAT and TAT-IB1(s) peptides; assay type: cell-based; details: 1 μM
Procedure: The ability of the L- and D-enantiomeric forms of TAT and TAT-IB1(s) peptides (“TAT-IB peptides”) to enter cells was evaluated. L-TAT, D-TAT, L-TAT-IB1(s), and D-TAT-IB1(s) peptides [SEQ ID NOs: 5, 6, 9 and 12, respectively] were labeled by N-terminal addition of a glycine residue conjugated to fluorescein. Labeled peptides (1 μM) were added to TC-3 cell cultures, which were maintained as described in Example 3. At predetermined times cells were washed with PBS and fixed for five minutes in ice-cold methanol-acetone (1:1) before being examined under a fluorescence microscope. Fluorescein-labeled BSA (1 μM, 12 moles/mole BSA) was used as a control.

[2] = tested on: JNK; details: JBDs; cited from earlier work
[3] = tested on: TC-3 cells; assay: IL-1 induced pancreatic beta-cell death with peptides; assay type: cell-based; details: 1 μM single addition
Procedure: Inhibition of IL-1 induced pancreatic beta-cell death by the D-TAT-IB1(s) peptide was analyzed. TC-3 cells were incubated as described above for 30 minutes with one single addition of the indicated peptides (1 μM), then IL-1 (10 ng/ml) was added.
Apoptotic cells were then counted after two days of incubation with IL-1 by use of Propidium Iodide and Hoechst 33342 nuclear staining. A minimum of 1,000 cells were counted for each experiment. Standard Error of the Means (SEM) are indicated, n=5.
Long term inhibition of IL-1 P induced cell-death by the D-TAT-IB1 peptide was also analyzed. TC-3 cells were incubated as above for 30 minutes with one single addition of the indicated peptides (1 μM), then IL-1 (10 ng/ml) was added, followed by addition of the cytokine every two days. Apoptotic cells were then counted after 15 days of incubation with IL-1 by use of propidium iodide and Hoechst 33342 nuclear staining. […] A minimum of 1.000 cells were counted for each experiment.

[4] = tested on: AP-1 DNA binding complex in HeLa cell nuclear extracts; assay: AP-1 gel retardation assay; assay type: cell-based; details: TNF-alpha 5 ng/ml
[5] = tested on: acute CYP-induced cystitis in female Sprague-Dawley rats; assay: CYP-induced acute cystitis, intravenous treatment, visceral pain; assay type: in vivo, rat; details: XG-102 2 mg/kg i.v., ibuprofen 10 mg/kg i.v.; 24 h post-CYP
Procedure: (§1) This preclinical model is well-used to test therapeutic approaches for the treatment of interstitial cystitis/painful bladder syndrome (IC/PBS).
(§2) Animals were acclimatized to the laboratory conditions for at least 3 days before the start of any experiments. The animals were allocated to the following four experimental groups (n=10 animals per group):
Control rats received physiological saline under the same experimental conditions as CYP (final volume of 5 mL/kg, i.p.).
(§3) On the day of each experiment, weight of rats was recorded.
Standardized conditions including fixed time-of-day (a.m. to minimize the potential circadian variations in the behaviours responses) and single-experimenter testing of all animals were applied to minimize variability behavior-based pain testing. Visceral pain including allodynia and hyperalgesia was evaluated by applying to the lower abdomen, close to the urinary bladder, a set of 8 calibrated von Frey filaments of increasing forces (1, 2, 4, 6, 8, 10, 26 and 60 g) with an interstimulus interval of 5 seconds. Prior testing, the abdominal area designed for mechanical stimulation of each animal was shaved. Animals were then placed on a raised wire mesh floor under individual transparent Plexiglas box and acclimatized for at least 30 minutes before starting the von Frey test. […]

[6] = tested on: acute CYP-induced cystitis in female Sprague-Dawley rats; assay: CYP-induced acute cystitis, intravesical treatment; assay type: in vivo, rat; details: 50 mg/mL i.ves.; 24 h post-CYP
Procedure: as §1, §2
To induce acute cystitis, a single i.p. injection of CYP at a dose of 150 mg/kg in a final volume of 5 mL/kg was performed. Control rats received physiological saline under the same experimental conditions as CYP (final volume of 5 mL/kg, i.p.).
as §3
Standardized conditions including fixed time-of-day (a.m. to minimize the potential circadian variations in the behaviours responses) and single-experimenter testing of all animals were applied to minimize variability behavior-based pain testing. Visceral pain including allodynia and hyperalgesia was evaluated by applying to the lower abdomen, close to the urinary bladder, a set of 8 calibrated von Frey filaments of increasing forces (1, 2, 4, 6, 8, 10, 26 and 60 g) with an interstimulus interval of 5 seconds. Prior testing, the abdominal area designed for mechanical stimulation of each animal was shaved. Animals were then placed on a raised wire mesh floor under individual transparent Plexiglas box and acclimatized for at least 30 minutes before starting the von Frey test. Filaments were then applied 1-2 seconds through the mesh floor with enough strength to cause the filament to slightly bend. Each filament was tested 3 times. Care was taken to stimulate different areas within the lower abdominal region in the vicinity of the urinary bladder to avoid desensitization.
Urinary bladders were rapidly collected and cleaned from lipoid tissue. […] Finally, wall thickness was measured using a digital caliper by placing the bladder wall between the two outside jaws.

[7] = target: T1, JNK3 (Homo sapiens, UniProt P53779); assay: Solid phase kinase assay, JNK3 phosphorylation of Elk1; assay type: biochemical; details: 0-25 μM
T1 construct: host or cells: cell-free: rabbit reticulocyte lysate transcription/translation
Procedure: (§4) The effects of the peptides on JNKs-mediated phosphorylation of their target transcription factors were investigated in vitro. Recombinant and non activated JNK1, JNK2 and JNK3 were produced using a TRANSCRIPTION AND TRANSLATION rabbit reticulocyte lysate kit (Promega) and used in solid phase kinase assays with c-jun, ATF2 and Elk1, either alone or fused to glutathione-S-transferase (GST), as substrates. Dose response studies were performed wherein L-TAT or L-TAT-IB1 (s) peptides (0-25 μM) were mixed with the recombinant JNK1, JNK2, or JNK3 kinases in reaction buffer (20 mM Tris-acetate, 1 mM EGTA, 10 mM p-nitrophenyl-phosphate (pNPP), 5 mM sodium pyrophosphate, 10 mM p-glycerophosphate, 1 mM dithiothreitol) for 20 minutes. The kinase reactions were then initiated by the addition of 10 mM MgCl2 and […] ^33P-gamma-dATP and 1 μg of either GST-Jun (aa 1-89), GST-AFT2 (aa 1-96) or GST-ELK1 (aa 307-428). GST-fusion proteins were purchased from Stratagene (La Jolla, Calif.).
(§5) Ten μL of glutathione-agarose beads were also added to the mixture. Reaction products were then separated by SDS-PAGE on a denaturing 10% polyacrylamide gel. […] The ability of D-TAT, D-TAT-IB1(s) and L-TAT-IB1(s) peptides (0-250 μM dosage study) to inhibit GST-Jun (aa 1-73) phosphorylation by recombinant JNK1, JNK2, and JNK3 by were analyzed as described above. […]

[8] = tested on: recombinant JNK1, JNK2 and JNK3; assay: Solid phase kinase assay, phosphorylation of c-Jun, ATF2 and Elk1; assay type: biochemical; details: dose response 0-25 μM
Procedure: as §4, §5

[9] = tested on: JNKs from UV-light irradiated HeLa cells or IL-1 treated TC-3 cells; assay: c-Jun phosphorylation by activated JNKs pulled down with GST-Jun; assay type: biochemical; details: 25 μM
Procedure: The effects of the L-TAT or L-TAT-IB1(s) peptides as defined herein on JNKs activated by stressful stimuli were evaluated using GST-Jun to pull down JNKs from UV-light irradiated HeLa cells or IL-1 treated PTC cells. PTC cells were cultured as described above. HeLa cells were cultured in DMEM medium supplemented with 10% Fetal Calf Serum, 100 μg/mL Streptomycin, 100 units/ml Penicillin and 2 mM Glutamine. One hour prior to being used for cell extract preparation, PTC cells were activated with IL-1 as described above, whereas HeLa cells were activated by UV-light (20 J/m^2). Cell extracts were prepared from control, UV-light irradiated HeLa cells and IL-1 treated TC-3 cells by scraping the cell cultures in lysis buffer (20 mM Tris-acetate, 1 mM EGTA, 1% Triton X-100, 10 mM p-nitrophenyl-phosphate, 5 mM sodium pyrophosphate, 10 mMP-glycerophosphate, 1 mM dithiothreitol). Debris was removed by centrifugation for five minutes at 15,000 rpm in an SS-34 Beckman rotor. One-hundred μg extracts were incubated for one hour at room temperature with one μg GST-jun (amino acids 1-89) and 10 μL of glutathione-agarose beads (Sigma). Following four washes with the scraping buffer, the beads were resuspended in the same buffer supplemented with L-TAT or L-TAT-IB1(s) peptides (25 μM) for 20 minutes. […]

[10] = tested on: JNK mediated activation of c-Jun in HeLa cells; assay: GAL4-Jun luciferase reporter after MKK4/MKK7 co-transfection; assay type: cell-based; details: 1 μM
Source text: To determine whether the cell-permeable peptides as defined herein could block JNK signaling in vivo, we used a heterologous GAL4 system. HeLa cells, cultured as described above, were co-transfected with the 5×GAL-LUC reporter vector together with the GAL-Jun expression construct (Stratagene) comprising the activation domain of c-Jun (amino acids 1-89) linked to the GAL4 DNA-binding domain. Activation of JNK was achieved by the co-transfection of vectors expressing the directly upstream kinases MKK4 and MKK7 (see Whitmarsh et al., Science 285: 1573 (1999)). Briefly, 3×10^5 cells were transfected with the plasmids in 3.5-cm dishes using DOTAP (Boehringer Mannheim) following instructions from the manufacturer. For experiments involving GAL-Jun, 20 ng of the plasmid was transfected with 1 μg of the reporter plasmid pFR-Luc (Stratagene) and 0.5 μg of either MKK4 or MKK7 expressing plasmids. Three hours following transfection, cell media were changed and TAT and TAT-IB1(s) peptides (1 μM) were added. The luciferase activities were measured 16 hours later using the “Dual Reporter System” from Promega after normalization to protein content. […] Because HeLa cells express JNK1 and JNK2 isoforms but not JNK3, we transfected cells with JNK3.

T1 sequence (P53779 whole entry, species assumed): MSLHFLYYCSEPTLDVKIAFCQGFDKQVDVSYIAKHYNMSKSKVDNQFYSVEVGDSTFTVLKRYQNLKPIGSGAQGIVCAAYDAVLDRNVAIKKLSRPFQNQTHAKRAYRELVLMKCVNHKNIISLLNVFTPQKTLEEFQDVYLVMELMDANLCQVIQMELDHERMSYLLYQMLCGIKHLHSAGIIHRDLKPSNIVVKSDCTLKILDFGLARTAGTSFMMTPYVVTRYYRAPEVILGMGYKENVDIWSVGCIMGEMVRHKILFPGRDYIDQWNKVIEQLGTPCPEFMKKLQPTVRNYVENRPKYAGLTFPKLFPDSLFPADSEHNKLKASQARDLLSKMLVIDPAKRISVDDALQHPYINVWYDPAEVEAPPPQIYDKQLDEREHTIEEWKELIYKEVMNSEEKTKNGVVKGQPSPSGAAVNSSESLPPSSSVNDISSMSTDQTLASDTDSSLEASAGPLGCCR

Compound: RRRQRRKKRG (D-amino acids; Description of sequence Peptide D-TAT (see Table 1))
entry into cells [1]: efficiently and rapidly (less than five minutes) entered cells

Compound: GRKKRRQRRR (Description of sequence Peptide L-TAT (see Table 1))
entry into cells [1]: efficiently and rapidly (less than five minutes) entered cells

Compound: IPSPSVEEPHKHRPTTLRLTTLGAQDS (Description of sequence Peptide IB2-long (see Table 1))
efficiency in binding JNK versus c-Jun or ATF2 [2]: approximately 100 fold

Compound: GRKKRRQRRRPPRPKRPTTLNLFPQVPRSQD (Description of sequence L-TAT-IB1 (s) (see Table 1)) [L-TAT-IB1(s)]
long term protection from IL-1 induced cell death ([3]; 15 days IL-1): not
formation of the AP-1 DNA binding complex [4]: decrease the formation of the AP-1 DNA binding complex in the presence of TNF-alpha
entry into cells [1]: efficiently and rapidly (less than five minutes) entered cells

Compound: TDQSRPVQPFLNLTTPRKPRYTDPPRRRQRRKKRG ([dT][dD][dQ][dS][dR][dP][dV][dQ][dP][dF][dL][dN][dL][dT][dT][dP][dR][dK][dP][dR][dY][dT][dD][dP][dP][dR][dR][dR][dQ][dR][dR][dK][dK][dR]G) [D-TAT-IB1]
IL-1 induced apoptosis ([3]; two days IL-1): decreased IL-1 induced apoptosis to a similar extent as L-TAT-IB peptides

Compound: CC(C)Cc1ccc(C(C)C(=O)O)cc1 (stereo not shown) [ibuprofen]
nociceptive scores versus vehicle [5]: significantly decrease nociceptive scores
nociceptive threshold versus vehicle [5]: significantly increased
haemorrhage scores [6]: no significant change was observed regarding haemorrhage scores
nociceptive scores versus vehicle [6]: significant decrease of nociceptive scores
nociceptive threshold versus vehicle [6]: significantly increased
urinary bladder wall thickness [6]: a significant decrease was observed in urinary bladder wall thickness

peptide dose with nearly complete inhibition of c-Jun, ATF2 and Elk1 phosphorylation by JNKs [8]: 2.5 µM
Compound: TAT-IB(s): TAT-IB1(s) peptide of Examples 5 to 7, there the L-TAT-IB1(s) peptide (GRKKRRQRRRPPRPKRPTTLNLFPQVPRSQD)
inhibition of JNK3 phosphorylation of Elk1 [7]: absence of TAT-IB(s) inhibition of JNK3 phosphorylation of Elk1
phosphorylation of c-Jun by activated JNKs [9]: efficiently prevented phosphorylation of c-Jun by activated JNKs
activation of c-Jun in cells transfected with JNK3 [10]: inhibited JNK2 mediated activation of c-Jun
activation of c-Jun following MKK4 and MKK7 mediated activation of JNK ([10]; luciferase 16 hours later): blocked activation of c-Jun following MKK4 and MKK7 mediated activation of JNK

Compound: PGTGCGDTYRPKRPTTLNLFPQVPRSQDT (Description of sequence peptide IB1-long (see Table 1))
efficiency in binding JNK versus c-Jun or ATF2 [2]: approximately 100 fold
